From patent publication US7932273B2, “3-[(2-{[4-(hexyloxycarbonylaminoiminomethyl) phenylamino]methyl}-1-methyl-1H-benzimidazol-5-carbonyl)pyridin-2-ylamino]propionic acid ethylester methansulfonate and its use as a medicament” (Boehringer Ingelheim International GmbH, priority 2003, dated 2011) come the findings set out here.

Each structure is given as a SMILES string.

Holding throughout (format): physicochemical
The nature of series [1]: hygroscopicity of the crystalline modifications. The conditions noted are these: in all three crystalline modifications (form I, form II, hemihydrate).
Series [2] in a line: solubility in physiologically acceptable acid aqueous media. The conditions noted are these: all three crystalline modifications.
The nature of series [3]: amorphization during grinding and compression. Conditions: all three crystalline modifications.

Turning to `CCCCCCOC(=O)NC(=N)c1ccc(NCc2nc3cc(C(=O)N(CCC(=O)OCC)c4ccccn4)ccc3n2C)cc1` [methanesulfonate, ethyl 3-[(2-{[4-(hexyloxycarbonylaminoimino-methyl)phenylamino]methyl}-1-methyl-1H-benzimidazole-5-carbonyl)pyridin-2-ylamino]propionate methanesulfonate], in series [1], the hygroscopicity entry is “non-hygroscopic”. Further, the solubility entry in series [2] is reported as “dissolves very easily”. Moreover, the amorphization result in series [3] is “low amorphization”.
